Measurements from US12077503B2, “Substituted cyclic amides and their use as herbicides” (FMC CORPORATION, priority 2015, dated 2024).

Tests used:
Type in all cases: in vivo
[1] = tested on: sedge, umbrella (small-flower umbrella sedge, Cyperus difformis); test: Test B flooded paddy test; conditions: Cyperus difformis, 250 g ai/ha, Flood; 0 to 100 scale where 0 is no effect and 100 is complete control; read-out: Sedge, Umbrella plant response rating
In short: (§1)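 Plants at 2-leaf stage flooded to 3 cm above soil, with compounds applied directly to paddy water and that depth maintained. Plants kept in greenhouse 13–15 d. Visual rating versus controls on a 0 (no effect) to 100 (complete control) scale.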

[2] = tested on: barnyardgrass (Echinochloa crus-galli); test: Test B flooded paddy test; conditions: Echinochloa crus-galli, 250 g ai/ha, Flood; 0 to 100 scale where 0 is no effect and 100 is complete control; read-out: Barnyardgrass plant response rating
In short: as §1

[3] = tested on: ducksalad (Heteranthera limosa); test: Test B flooded paddy test; conditions: Heteranthera limosa, 250 g ai/ha, Flood; 0 to 100 scale where 0 is no effect and 100 is complete control; read-out: Ducksalad plant response rating
In short: as §1

[4] = tested on: rice (Oryra sativa); test: Test B flooded paddy test; conditions: Oryza sativa, 250 g ai/ha, Flood; 0 to 100 scale where 0 is no effect and 100 is complete control; read-out: Rice plant response rating
In short: as §1

[5] = tested on: Galium (catchweed bedstraw, Galium aparine); test: Test A postemergence; conditions: Galium, post-emergence, 240 h, postemergence; for pest or weed control at 125 g/ha: 125 g ai/ha, visual injury vs untreated controls after approx. 10 d, 0 = no effect, 100 = complete control, read-out: Galium plant response rating (0 to 100 scale); for pest or weed control at 500 g/ha: 500 g ai/ha, 0 to 100 scale, 0 is no effect, 100 is complete control, read-out: Galium plant response rating
In short: (§2)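 Seeds sprayed preemergence with a directed soil spray, or plants at 2 to 10 cm height and one- to two-leaf stage sprayed postemergence, with test chemicals in a non-phytotoxic solvent mixture containing surfactant, in loam soil–sand blend. Injury rated visually against untreated controls after about 10 d in greenhouse, 0 (no effect) to 100 (complete control).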

[6] = tested on: blackgrass (Alopecurus myosuroides); test: Test A postemergence; conditions: Alopecurus myosuroides, post-emergence, 240 h, postemergence; for pest or weed control at 125 g/ha: 125 g ai/ha, visual injury vs untreated controls after approx. 10 d, 0 = no effect, 100 = complete control, read-out: Blackgrass plant response rating (0 to 100 scale); for pest or weed control at 500 g/ha: 500 g ai/ha, 0 to 100 scale, 0 is no effect, 100 is complete control, read-out: Blackgrass plant response rating
In short: as §2

[7] = tested on: barnyardgrass (Echinochloa crus-galli); test: Test A postemergence; conditions: Echinochloa crus-galli, post-emergence, 240 h, postemergence; for pest or weed control at 125 g/ha: 125 g ai/ha, visual injury vs untreated controls after approx. 10 d, 0 = no effect, 100 = complete control, read-out: Barnyardgrass plant response rating (0 to 100 scale); for pest or weed control at 500 g/ha: 500 g ai/ha, 0 to 100 scale, 0 is no effect, 100 is complete control, read-out: Barnyardgrass plant response rating
In short: as §2

[8] = tested on: ryegrass, Italian (Italian ryegrass, Lolium multiflorum); test: Test A postemergence; conditions: Lolium multiflorum, post-emergence, 240 h, postemergence; for pest or weed control at 125 g/ha: 125 g ai/ha, visual injury vs untreated controls after approx. 10 d, 0 = no effect, 100 = complete control, read-out: Ryegrass, Italian plant response rating (0 to 100 scale); for pest or weed control at 500 g/ha: 500 g ai/ha, 0 to 100 scale, 0 is no effect, 100 is complete control, read-out: Ryegrass, Italian plant response rating
In short: as §2

[9] = tested on: wheat (Triticum aestivum); test: Test A postemergence; conditions: Triticum aestivum, post-emergence, 240 h, postemergence; for plant injury at 125 g/ha: 125 g ai/ha, visual injury vs untreated controls after approx. 10 d, 0 = no effect, 100 = complete control, read-out: Wheat plant response rating (0 to 100 scale); for plant injury at 500 g/ha: 500 g ai/ha, 0 to 100 scale, 0 is no effect, 100 is complete control, read-out: Wheat plant response rating
In short: as §2

[10] = tested on: pigweed (Amaranthus retroflexus); test: Test A postemergence; conditions: Amaranthus retroflexus, post-emergence, 240 h, postemergence; for pest or weed control at 125 g/ha: 125 g ai/ha, visual injury vs untreated controls after approx. 10 d, 0 = no effect, 100 = complete control, read-out: Pigweed plant response rating (0 to 100 scale); for pest or weed control at 500 g/ha: 500 g ai/ha, 0 to 100 scale, 0 is no effect, 100 is complete control, read-out: Pigweed plant response rating
In short: as §2

[11] = tested on: corn (Zea mays); test: Test A postemergence; conditions: Zea mays, post-emergence, 240 h, postemergence; for plant injury at 125 g/ha: 125 g ai/ha, visual injury vs untreated controls after approx. 10 d, 0 = no effect, 100 = complete control, read-out: Corn plant response rating (0 to 100 scale); for plant injury at 500 g/ha: 500 g ai/ha, 0 to 100 scale, 0 is no effect, 100 is complete control, read-out: Corn plant response rating
In short: as §2

[12] = tested on: giant foxtail (Setaria faberii); test: Test A postemergence; conditions: Setaria faberi, post-emergence, 240 h, postemergence; for pest or weed control at 125 g/ha: 125 g ai/ha, visual injury vs untreated controls after approx. 10 d, 0 = no effect, 100 = complete control, read-out: Foxtail, Giant plant response rating (0 to 100 scale); for pest or weed control at 500 g/ha: 500 g ai/ha, 0 to 100 scale, 0 is no effect, 100 is complete control, read-out: Foxtail, Giant plant response rating
In short: as §2

[13] = tested on: ragweed (common ragweed, Ambrosia elatior); test: Test A postemergence; conditions: Ambrosia artemisiifolia, post-emergence, 240 h, postemergence; for pest or weed control at 125 g/ha: 125 g ai/ha, visual injury vs untreated controls after approx. 10 d, 0 = no effect, 100 = complete control, read-out: Ragweed plant response rating (0 to 100 scale); for pest or weed control at 500 g/ha: 500 g ai/ha, 0 to 100 scale, 0 is no effect, 100 is complete control, read-out: Ragweed plant response rating
In short: as §2

[14] = tested on: barnyardgrass (Echinochloa crus-galli); test: Test A preemergence; conditions: Echinochloa crus-galli, pre-emergence, 240 h, preemergence, 0 to 100 scale where 0 is no effect and 100 is complete control, read-out: Barnyardgrass plant response rating; for pest or weed control at 125 g/ha: 125 g ai/ha; for pest or weed control at 500 g/ha: 500 g ai/ha
In short: as §2

[15] = visual injury rating, approximately 10 d

| SMILES | pest or weed control at 250 g/ha [1] [%] | pest or weed control at 250 g/ha [2] [%] | pest or weed control at 250 g/ha [3] [%] | pest or weed control at 250 g/ha [4] [%] | pest or weed control at 125 g/ha [5] [%] | pest or weed control at 500 g/ha [5] [%] | pest or weed control at 125 g/ha [6] [%] | pest or weed control at 500 g/ha [6] [%] | pest or weed control at 125 g/ha [7] [%] | pest or weed control at 500 g/ha [7] [%] | pest or weed control at 125 g/ha [8] [%] | pest or weed control at 500 g/ha [8] [%] | plant injury at 125 g/ha [9] [%] | plant injury at 500 g/ha [9] [%] | pest or weed control at 125 g/ha [10] [%] | pest or weed control at 500 g/ha [10] [%] | plant injury at 125 g/ha [11] [%] | plant injury at 500 g/ha [11] [%] | pest or weed control at 125 g/ha [12] [%] | pest or weed control at 500 g/ha [12] [%] | also measured |
| --- | --- | --- | --- | --- | --- | --- | --- | --- | --- | --- | --- | --- | --- | --- | --- | --- | --- | --- | --- | --- | --- |
| Cc1nc([C@H]2CNC(=O)[C@@H]2C(=O)Nc2ccccc2F)cs1 [Compound 1179] | 0 | 0 | 40 | 0 | 0 | 0 | 0 | 0 | 0 | 0 | 0 | 0 | 0 | 0 | 0 | 0 | 0 | 0 | 0 | 0 | pest or weed control at 125 g/ha [13]: 0%; pest or weed control at 500 g/ha [13]: 0%; pest or weed control at 125 g/ha ([14]; approx. 10 d): 0%; pest or weed control at 500 g/ha [14]: 0% |
| O=C1NC[C@H](c2nccs2)[C@H]1C(=O)Nc1ccccc1F [Compound 1181] | 0 | 0 | 35 | 0 | 0 | 0 | 0 | 0 | 0 | 0 | 0 | 0 | 0 | 0 | 0 | 0 | 0 | 0 | 0 | 0 | pest or weed control at 125 g/ha [13]: 0%; pest or weed control at 500 g/ha [13]: 0%; pest or weed control at 125 g/ha ([14]; approx. 10 d): 0%; pest or weed control at 500 g/ha [14]: 0% |
| Cc1ccc([C@H]2CCN(C)C(=O)[C@@H]2C(=O)Nc2ccc(F)c(F)c2F)cc1 [Compound 1221] | 0 | 85 | 100 | 0 | 40 | 60 | 60 | 70 | 30 | 60 | 20 | 70 | 20 | 60 | 0 | 0 | 0 | 60 | 90 | 90 | pest or weed control at 125 g/ha [13]: 0%; pest or weed control at 500 g/ha [13]: 20%; pest or weed control at 125 g/ha [14, 15]: 90%; pest or weed control at 500 g/ha [14]: 100% |
| CSc1ccccc1NC(=O)[C@H]1C(=O)N(C)CC[C@@H]1c1ccc(C)cc1 [Compound 1222] | 70 | 0 | 65 | 15 | 0 | 0 | 0 | 0 | 0 | 0 | 0 | 0 | 0 | 0 | 0 | 0 | 0 | 0 | 20 | 70 | pest or weed control at 125 g/ha [13]: 0%; pest or weed control at 500 g/ha [13]: 0%; pest or weed control at 125 g/ha [14, 15]: 0%; pest or weed control at 500 g/ha [14]: 20% |
